The text below walks through data of ChEMBL document CHEMBL6134801, “SMARCA2 protein: Structure, function and perspectives of drug design” (Eur J Med Chem, 2025).

The target of the first experiment is T1, SWI/SNF-related matrix-associated actin-dependent regulator of chromatin subfamily A member 2 (Homo sapiens, UniProt P51531). Nature of the experiment: Inhibition of SMARCA2 (unknown origin).
T1 sequence (P51531 whole entry): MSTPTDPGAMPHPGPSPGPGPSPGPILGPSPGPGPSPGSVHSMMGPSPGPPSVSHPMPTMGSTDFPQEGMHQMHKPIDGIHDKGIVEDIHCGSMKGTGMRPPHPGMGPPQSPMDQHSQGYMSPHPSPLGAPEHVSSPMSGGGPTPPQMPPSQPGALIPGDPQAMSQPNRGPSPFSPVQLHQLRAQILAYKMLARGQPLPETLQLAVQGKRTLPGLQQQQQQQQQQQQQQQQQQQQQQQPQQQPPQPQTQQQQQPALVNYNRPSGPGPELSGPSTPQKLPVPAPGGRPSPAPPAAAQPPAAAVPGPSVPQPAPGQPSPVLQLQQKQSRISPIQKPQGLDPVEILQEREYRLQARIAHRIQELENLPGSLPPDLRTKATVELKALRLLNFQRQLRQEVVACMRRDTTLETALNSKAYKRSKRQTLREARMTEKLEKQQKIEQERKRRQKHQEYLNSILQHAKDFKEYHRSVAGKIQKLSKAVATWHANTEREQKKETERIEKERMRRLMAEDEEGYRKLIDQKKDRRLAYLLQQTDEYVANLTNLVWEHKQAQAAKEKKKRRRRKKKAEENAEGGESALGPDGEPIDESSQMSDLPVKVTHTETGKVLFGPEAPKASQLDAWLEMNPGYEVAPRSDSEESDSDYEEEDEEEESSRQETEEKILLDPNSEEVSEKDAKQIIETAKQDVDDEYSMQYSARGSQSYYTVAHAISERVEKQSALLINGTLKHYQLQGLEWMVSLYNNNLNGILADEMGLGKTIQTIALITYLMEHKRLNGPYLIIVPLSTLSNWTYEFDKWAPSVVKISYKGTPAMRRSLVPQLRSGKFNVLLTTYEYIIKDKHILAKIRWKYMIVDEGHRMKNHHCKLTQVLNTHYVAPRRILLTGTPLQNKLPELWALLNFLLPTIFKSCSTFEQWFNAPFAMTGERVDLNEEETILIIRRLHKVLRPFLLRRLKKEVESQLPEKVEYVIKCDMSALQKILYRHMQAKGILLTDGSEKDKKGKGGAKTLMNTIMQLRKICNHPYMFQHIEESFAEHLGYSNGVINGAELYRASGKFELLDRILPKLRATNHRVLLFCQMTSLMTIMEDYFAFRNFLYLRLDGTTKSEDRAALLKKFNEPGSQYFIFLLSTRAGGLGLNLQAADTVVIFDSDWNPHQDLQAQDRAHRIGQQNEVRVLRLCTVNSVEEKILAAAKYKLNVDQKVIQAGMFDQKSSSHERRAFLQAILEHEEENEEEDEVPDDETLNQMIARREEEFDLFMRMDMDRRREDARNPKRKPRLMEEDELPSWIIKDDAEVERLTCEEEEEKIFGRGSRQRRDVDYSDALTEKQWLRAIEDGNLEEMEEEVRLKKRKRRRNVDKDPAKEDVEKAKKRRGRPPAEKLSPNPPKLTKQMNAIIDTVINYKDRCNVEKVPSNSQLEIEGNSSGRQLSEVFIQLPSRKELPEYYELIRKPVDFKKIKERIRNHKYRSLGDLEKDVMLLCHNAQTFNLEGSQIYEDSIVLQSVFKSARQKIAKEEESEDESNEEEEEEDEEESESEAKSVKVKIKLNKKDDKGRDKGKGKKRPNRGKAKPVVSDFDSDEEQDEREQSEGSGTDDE
The molecule `COc1cc(CNCc2ccccn2)ccc1OCc1ccccc1F` gave an IC50 of 9 µM. On the same count and under the same terms, the figure for `COc1cc(CNCc2ccccn2)ccc1OCc1cccc(Cl)c1` is 9.2 µM; for `COc1cc(CNCc2ccccn2)ccc1OCc1cccs1` it is 17 µM; for `COc1cc(CNCc2ccccn2)cc(Cl)c1OCc1ccc(Cl)cc1` it is 30.2 µM. `COc1cc(CNCc2ccccn2)cc(Cl)c1OCc1ccc(Cl)cc1Cl` came in with an IC50 of 9.1 µM.

In the next experiment the target is T1, SWI/SNF-related matrix-associated actin-dependent regulator of chromatin subfamily A member 2. Nature of the experiment: Induction of thermal stabilization of SMARCA2 (unknown origin) assessed as change in melting temperature by fluorescence based thermal shift assay.
In the case of `O=C(O)c1ccccc1O`, the ΔTm stood at 1.3 °C.

By IC50 is commonly meant the point on the concentration scale where inhibition reaches its midpoint. Read a low IC50 as greater potency. Usually ΔTm stands for the shift of the melting midpoint relative to a reference.
